In patent publication EP1976513B1 (priority 2006, dated 2007):
Like-named read-outs stand apart in the source and are kept apart here.

Assays:
[1] = tested on: mice; experiment: Mouse tail suspension test; format: in vivo; settings: PO, 30-60 minutes before the test, 5 minutes recording
[2] = tested on: mice; experiment: Mouse locomotor activity; format: in vivo; settings: PO
Method: (§1) In order to ensure effects of the compounds on immobility time were not related to a general stimulant effect on baseline motor activity, locomotor activity was assessed using photocell monitored cages (Med-Associates Inc.). Each test chamber was equipped with infrared photocell beams to measure movement of the animals. Horizontal and vertical activity were measured
(§2) Rats or mice were pretreated with vehicle or test compounds and placed back in home cage, following which they will be individually placed in locomotor cages and activity was monitored in 5 minute intervals for up to 60 min.
(§3) Data were analyzed by one way analysis of variance (ANOVA) followed by post-hoc comparisons where appropriate. An effect was considered significant if p < 0.05. Data are represented as the mean and standard error to the mean (s.e.m).

[3] = tested on: Rats; experiment: Rat forced swim test; format: in vivo; settings: PO, 24 hours and 30-60 minutes before the 5 minute test
[4] = tested on: Rats; experiment: Rat locomotor activity; format: in vivo; settings: PO
Method: as §1, §2, §3

[5] = target: human serotonin reuptake transporter (Homo sapiens, UniProt P31645); experiment: cell-based
Sequence of human serotonin reuptake transporter (P31645 whole entry): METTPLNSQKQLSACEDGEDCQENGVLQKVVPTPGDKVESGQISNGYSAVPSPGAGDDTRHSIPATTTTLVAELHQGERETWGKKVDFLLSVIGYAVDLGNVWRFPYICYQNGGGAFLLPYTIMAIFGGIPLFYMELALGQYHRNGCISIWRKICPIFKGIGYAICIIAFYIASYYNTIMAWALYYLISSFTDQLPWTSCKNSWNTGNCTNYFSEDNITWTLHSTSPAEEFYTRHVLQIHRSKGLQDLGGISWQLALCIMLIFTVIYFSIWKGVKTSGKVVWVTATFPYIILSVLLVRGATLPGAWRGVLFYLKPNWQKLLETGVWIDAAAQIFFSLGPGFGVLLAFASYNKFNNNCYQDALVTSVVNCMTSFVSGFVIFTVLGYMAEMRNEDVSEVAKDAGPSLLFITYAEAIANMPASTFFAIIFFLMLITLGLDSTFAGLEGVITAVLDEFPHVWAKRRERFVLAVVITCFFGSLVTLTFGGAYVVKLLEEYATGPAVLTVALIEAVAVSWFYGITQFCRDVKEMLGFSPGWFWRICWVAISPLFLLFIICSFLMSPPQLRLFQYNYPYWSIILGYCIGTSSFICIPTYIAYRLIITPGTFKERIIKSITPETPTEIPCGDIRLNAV

[6] = target: T1, DA Transporter (DAT) Sites in Mouse Brain (Mus musculus, UniProt Q61327); experiment: Ex vivo [3H] WIN 35428 binding after oral dosing; set-up: species or system C57BL/6 mice; settings: for % Transporter Occupancy, DAT: 60 minutes after treatment, vs vehicle; for Mean Specific Binding (dpm) ± S.E.M., DAT: mice sacrificed 60 minutes after treatment, striatum
T1 construct: Striatum was used to determine occupancy of DA transporter sites; from tissue; host or cells: C57BL/6 mouse striatum homogenate
T1 sequence (Q61327 whole entry): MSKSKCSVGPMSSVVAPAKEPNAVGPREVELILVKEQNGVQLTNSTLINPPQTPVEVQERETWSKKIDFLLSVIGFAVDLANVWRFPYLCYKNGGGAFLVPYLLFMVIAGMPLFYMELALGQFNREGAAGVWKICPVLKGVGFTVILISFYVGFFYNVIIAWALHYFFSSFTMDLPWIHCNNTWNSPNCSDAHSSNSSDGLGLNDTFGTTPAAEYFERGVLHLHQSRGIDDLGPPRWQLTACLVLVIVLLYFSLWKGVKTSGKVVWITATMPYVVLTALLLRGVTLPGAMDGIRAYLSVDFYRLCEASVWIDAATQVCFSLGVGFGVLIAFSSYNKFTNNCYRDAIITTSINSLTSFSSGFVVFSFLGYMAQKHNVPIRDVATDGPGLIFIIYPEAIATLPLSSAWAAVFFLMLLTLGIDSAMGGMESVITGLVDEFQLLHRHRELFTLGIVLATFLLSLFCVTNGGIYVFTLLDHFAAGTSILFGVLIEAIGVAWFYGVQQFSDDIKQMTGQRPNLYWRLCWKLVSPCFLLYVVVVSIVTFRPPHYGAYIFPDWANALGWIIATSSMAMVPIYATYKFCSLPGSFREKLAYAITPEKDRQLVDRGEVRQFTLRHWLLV

[7] = target: T2, 5-HT Transporter (SERT) Sites in Mouse Brain (Mus musculus, UniProt Q60857); experiment: Ex vivo [3H] citalopram binding after oral dosing; set-up: species or system C57BL/6 mice; settings: for % Transporter Occupancy, SERT: 60 minutes after treatment, vs vehicle; for Mean Specific Binding (dpm) ± S.E.M., SERT: mice sacrificed 60 minutes after treatment, cortex
T2 construct: Whole brains were removed and cortex and striata dissected out; from tissue; host or cells: C57BL/6 mouse frontal cortex homogenate
T2 sequence (Q60857 whole entry): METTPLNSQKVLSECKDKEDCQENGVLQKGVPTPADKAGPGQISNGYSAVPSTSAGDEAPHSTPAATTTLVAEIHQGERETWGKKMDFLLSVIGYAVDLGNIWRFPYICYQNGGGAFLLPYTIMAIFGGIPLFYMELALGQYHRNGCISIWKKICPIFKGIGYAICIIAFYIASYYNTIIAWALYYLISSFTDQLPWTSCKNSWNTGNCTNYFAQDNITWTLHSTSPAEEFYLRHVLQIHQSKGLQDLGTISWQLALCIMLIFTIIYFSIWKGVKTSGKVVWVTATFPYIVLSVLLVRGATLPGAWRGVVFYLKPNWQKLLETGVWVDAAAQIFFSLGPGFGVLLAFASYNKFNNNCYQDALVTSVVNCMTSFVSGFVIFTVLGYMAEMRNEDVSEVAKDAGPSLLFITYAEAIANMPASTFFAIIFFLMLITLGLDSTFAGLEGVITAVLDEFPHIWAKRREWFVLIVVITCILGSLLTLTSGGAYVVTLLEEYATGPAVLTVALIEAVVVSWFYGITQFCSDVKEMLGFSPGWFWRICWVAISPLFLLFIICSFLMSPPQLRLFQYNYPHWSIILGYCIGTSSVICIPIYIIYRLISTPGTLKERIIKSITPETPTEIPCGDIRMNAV

[8] = target: Norepinephrine Transporter (NET) Sites in Mouse Brain (Mus musculus, UniProt O55192); settings: PO; for % Transporter Occupancy, NET: 60 minutes after treatment, vs vehicle; for Mean Specific Binding (dpm) ± S.E.M., NET: mice sacrificed 60 minutes after treatment, cortex
Sequence of Norepinephrine Transporter (NET) Sites in Mouse Brain (O55192 whole entry): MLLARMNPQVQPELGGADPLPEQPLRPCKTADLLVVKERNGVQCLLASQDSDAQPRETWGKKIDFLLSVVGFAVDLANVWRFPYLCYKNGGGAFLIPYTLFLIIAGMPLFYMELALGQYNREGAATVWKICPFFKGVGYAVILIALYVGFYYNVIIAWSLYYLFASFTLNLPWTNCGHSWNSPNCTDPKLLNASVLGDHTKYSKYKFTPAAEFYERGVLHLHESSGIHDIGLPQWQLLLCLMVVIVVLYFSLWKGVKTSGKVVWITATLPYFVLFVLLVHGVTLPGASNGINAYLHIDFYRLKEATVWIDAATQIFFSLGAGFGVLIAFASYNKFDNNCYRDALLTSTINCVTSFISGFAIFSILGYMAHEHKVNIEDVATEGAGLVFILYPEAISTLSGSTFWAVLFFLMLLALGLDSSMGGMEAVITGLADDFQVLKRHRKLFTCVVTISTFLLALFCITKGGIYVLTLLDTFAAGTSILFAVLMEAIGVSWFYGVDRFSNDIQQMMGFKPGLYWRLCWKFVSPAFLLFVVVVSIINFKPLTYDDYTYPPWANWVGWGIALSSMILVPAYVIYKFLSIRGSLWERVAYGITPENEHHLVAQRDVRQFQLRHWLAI

[9] = target: T3, human dopamine reuptake transporter (Homo sapiens, UniProt Q01959); experiment: cell-based; settings: recombinant human dopamine transporter (DAT); read-out: Human IC50 (nM) hDAT
T3 construct: expressed in transfected cells; host or cells: CHO-K1 or HEK293
T3 sequence (Q01959 whole entry): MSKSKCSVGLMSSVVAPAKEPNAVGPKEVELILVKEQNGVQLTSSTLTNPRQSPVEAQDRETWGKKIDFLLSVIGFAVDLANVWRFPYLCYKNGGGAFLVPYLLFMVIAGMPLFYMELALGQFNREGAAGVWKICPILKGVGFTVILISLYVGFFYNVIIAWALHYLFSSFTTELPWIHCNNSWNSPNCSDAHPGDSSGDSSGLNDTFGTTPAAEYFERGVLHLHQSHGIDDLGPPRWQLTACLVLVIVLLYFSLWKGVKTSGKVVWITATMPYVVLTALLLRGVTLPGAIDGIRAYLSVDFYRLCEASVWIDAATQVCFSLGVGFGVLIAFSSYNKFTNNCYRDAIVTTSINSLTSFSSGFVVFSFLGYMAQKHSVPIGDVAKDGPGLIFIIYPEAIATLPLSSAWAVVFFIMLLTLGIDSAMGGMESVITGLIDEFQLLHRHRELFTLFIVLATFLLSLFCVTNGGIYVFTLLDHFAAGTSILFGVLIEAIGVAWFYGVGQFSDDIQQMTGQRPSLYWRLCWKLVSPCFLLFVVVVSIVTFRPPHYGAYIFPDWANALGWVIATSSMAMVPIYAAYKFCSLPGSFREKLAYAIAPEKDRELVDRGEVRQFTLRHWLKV

[10] = recombinant human serotonin transporter (SERT), read-out: Human IC50 (nM) hSERT
[11] = Human IC50 (nM) hSERT, recombinant human serotonin transporter (SERT)

SMILES: CCC(N)C1(c2ccc(Cl)c(Cl)c2)CCCCC1 (single isomer, unassigned) [17 E1, 1-(1-(3,4-dichlorophenyl)cyclohexyl)propan-1-amine]
- Mouse Tail Suspension Mean Immobility Time ± S.E.M. ([1]; 3 mg/kg): 184.7 ± 9.0
- Mouse Tail Suspension Mean Immobility Time ± S.E.M. ([1]; 10 mg/kg): 182.6 ± 4.1
- Mouse Tail Suspension Mean Immobility Time ± S.E.M. ([1]; 30 mg/kg): 150.9 ± 7.8
- Mouse Locomotor Activity Total Distance Traveled ± S.E.M. ([2]; 3 mg/kg): 649.3 ± 78.4
- Mouse Locomotor Activity Total Distance Traveled ± S.E.M. ([2]; 10 mg/kg): 478.3 ± 88.5
- Mouse Locomotor Activity Total Distance Traveled ± S.E.M. ([2]; 30 mg/kg): 428.3 ± 120.6

SMILES: CNC(C)C1(c2ccc(Cl)c(Cl)c2)CCCCC1 (single isomer, unassigned) [44 E1, 1-(1-(3,4-dichlorophenyl)cyclohexyl)-N-methylethanamine]
- Mouse Tail Suspension Mean Immobility Time ± S.E.M. ([1]; 3 mg/kg): 188.9 ± 7.3
- Mouse Tail Suspension Mean Immobility Time ± S.E.M. ([1]; 10 mg/kg): 174.5 ± 8.1
- Mouse Tail Suspension Mean Immobility Time ± S.E.M. ([1]; 30 mg/kg): 120.4 ± 9.0
- Mouse Locomotor Activity Total Distance Traveled ± S.E.M. ([2]; 3 mg/kg): 576.5 ± 66.9
- Mouse Locomotor Activity Total Distance Traveled ± S.E.M. ([2]; 10 mg/kg): 721.1 ± 36.5
- Mouse Locomotor Activity Total Distance Traveled ± S.E.M. ([2]; 30 mg/kg): 402.3 ± 71.0

SMILES: CN(C)CC1(c2ccc(Cl)c(Cl)c2)CCCCC1O (single isomer, unassigned) [153 E2, trans-2-(3,4-dichlorophenyl)-2-((dimethylamino)methyl)cyclohexanol]
- Rat Forced Swim (Means ± S.E.M.) Climbing ([3]; 3 mg/kg): 8.8 ± 1.5
- Rat Forced Swim (Means ± S.E.M.) Immobility ([3]; 3 mg/kg): 49.9 ± 1.7
- Rat Forced Swim (Means ± S.E.M.) Swimming ([3]; 3 mg/kg): 1.9 ± 0.8
- Rat Forced Swim (Means ± S.E.M.) Climbing ([3]; 10 mg/kg): 11.7 ± 1.8
- Rat Forced Swim (Means ± S.E.M.) Immobility ([3]; 10 mg/kg): 44.0 ± 2.1
- Rat Forced Swim (Means ± S.E.M.) Swimming ([3]; 10 mg/kg): 4.3 ± 1.1
- Rat Forced Swim (Means ± S.E.M.) Climbing ([3]; 30 mg/kg): 22.2 ± 5.2
- Rat Forced Swim (Means ± S.E.M.) Immobility ([3]; 30 mg/kg): 31.3 ± 6.7
- Rat Forced Swim (Means ± S.E.M.) Swimming ([3]; 30 mg/kg): 4.6 ± 1.3
- Rat Locomotor Activity Total Distance Traveled ± S.E.M. ([4]; 3 mg/kg): 1577.8 ± 80.1
- Rat Locomotor Activity Total Distance Traveled ± S.E.M. ([4]; 10 mg/kg): 1994.2 ± 263.9
- Rat Locomotor Activity Total Distance Traveled ± S.E.M. ([4]; 30 mg/kg): 2033.7 ± 215.4
- Mouse Locomotor Activity Total Distance Traveled ± S.E.M. ([2]; 3 mg/kg): 625.5 ± 88.8
- Mouse Locomotor Activity Total Distance Traveled ± S.E.M. ([2]; 10 mg/kg): 519.5 ± 88.4
- Mouse Locomotor Activity Total Distance Traveled ± S.E.M. ([2]; 30 mg/kg): 573.7 ± 63.6

SMILES: CN(C)CC1(c2ccc3ccccc3c2)CCCCC1O (single isomer, unassigned) [164 E1, trans-2-((dimethylamino)methyl)-2-(naphthalen-2-yl)cyclohexanol]
- Mouse Tail Suspension Mean Immobility Time ± S.E.M. ([1]; 3 mg/kg): 183.8 ± 6.5
- Mouse Tail Suspension Mean Immobility Time ± S.E.M. ([1]; 10 mg/kg): 162.1 ± 4.6
- Mouse Tail Suspension Mean Immobility Time ± S.E.M. ([1]; 30 mg/kg): 155.3 ± 7.8
- Mouse Locomotor Activity Total Distance Traveled ± S.E.M. ([2]; 3 mg/kg): 377.8 ± 67.6
- Mouse Locomotor Activity Total Distance Traveled ± S.E.M. ([2]; 10 mg/kg): 210.3 ± 40.4
- Mouse Locomotor Activity Total Distance Traveled ± S.E.M. ([2]; 30 mg/kg): 494.0 ± 84.9

SMILES: CN(C)CC1(c2ccc3ccccc3c2)CCCCC1O (single isomer, unassigned) [164 E2, trans-2-((dimethylamino)methyl)-2-(naphthalen-2-yl)cyclohexanol]
- Mouse Tail Suspension Mean Immobility Time ± S.E.M. ([1]; 3 mg/kg): 181.8 ± 6.3
- Mouse Tail Suspension Mean Immobility Time ± S.E.M. ([1]; 10 mg/kg): 179.1 ± 4.5
- Mouse Tail Suspension Mean Immobility Time ± S.E.M. ([1]; 30 mg/kg): 141.8 ± 6.0
- Mouse Locomotor Activity Total Distance Traveled ± S.E.M. ([2]; 3 mg/kg): 518.2 ± 106.1
- Mouse Locomotor Activity Total Distance Traveled ± S.E.M. ([2]; 10 mg/kg): 464.5 ± 86.2
- Mouse Locomotor Activity Total Distance Traveled ± S.E.M. ([2]; 30 mg/kg): 669.9 ± 75.6

SMILES: CNCC1(c2ccc(Cl)c(Cl)c2)CCC(C)(O)CC1 (stereo not drawn) [Compound 276, 4-(3,4-dichlorophenyl)-1-methyl-4-((methylamino)methyl)cyclohexanol]
- IC50 [5, 10]: 210 nM
- % Transporter Occupancy, DAT ([6]; 1 mg/kg): -21%
- % Transporter Occupancy, DAT ([6]; 3 mg/kg): -9%
- Mean Specific Binding (dpm) ± S.E.M., DAT ([6]; 3 mg/kg): 16312 ± 2396 dpm
- % Transporter Occupancy, DAT ([6]; 10 mg/kg): -6%
- Mean Specific Binding (dpm) ± S.E.M., DAT ([6]; 10 mg/kg): 15879 ± 2265 dpm
- % Transporter Occupancy, DAT ([6]; 30 mg/kg): 31%
- Mean Specific Binding (dpm) ± S.E.M., DAT ([6]; 30 mg/kg): 10397 ± 931 dpm
- % Transporter Occupancy, SERT ([7]; 1 mg/kg): 12%
- Mean Specific Binding (dpm) ± S.E.M., SERT ([7]; 1 mg/kg): 3743 ± 199 dpm
- % Transporter Occupancy, SERT ([7]; 3 mg/kg): 14%
- Mean Specific Binding (dpm) ± S.E.M., SERT ([7]; 3 mg/kg): 3685 ± 292 dpm
- % Transporter Occupancy, SERT ([7]; 10 mg/kg): 28%
- Mean Specific Binding (dpm) ± S.E.M., SERT ([7]; 10 mg/kg): 3092 ± 207 dpm
- % Transporter Occupancy, SERT ([7]; 30 mg/kg): 64%
- Mean Specific Binding (dpm) ± S.E.M., SERT ([7]; 30 mg/kg): 1558 ± 169 dpm
- % Transporter Occupancy, NET ([8]; 1 mg/kg): -4%
- Mean Specific Binding (dpm) ± S.E.M., NET ([8]; 1 mg/kg): 1602 ± 51 dpm
- % Transporter Occupancy, NET ([8]; 3 mg/kg): -6%
- Mean Specific Binding (dpm) ± S.E.M., NET ([8]; 3 mg/kg): 1631 ± 92 dpm
- % Transporter Occupancy, NET ([8]; 10 mg/kg): -1%
- Mean Specific Binding (dpm) ± S.E.M., NET ([8]; 10 mg/kg): 1553 ± 27 dpm
- % Transporter Occupancy, NET ([8]; 30 mg/kg): 26%
- Mean Specific Binding (dpm) ± S.E.M., NET ([8]; 30 mg/kg): 1138 ± 59 dpm
- Mouse Locomotor Activity Total Distance Traveled ± S.E.M. ([2]; 3 mg/kg): 625.9 ± 47.5
- Mouse Locomotor Activity Total Distance Traveled ± S.E.M. ([2]; 10 mg/kg): 382.4 ± 63.4
- Mouse Locomotor Activity Total Distance Traveled ± S.E.M. ([2]; 30 mg/kg): 607.8 ± 57.8

SMILES: CCC1(O)CCC(CN)(c2ccc(Cl)c(Cl)c2)CC1 (stereo not drawn) [Compound 278, 4-(aminomethyl)-4-(3,4-dichlorophenyl)-1-ethylcyclohexanol]
- IC50 [5, 10]: 5140 nM
- IC50 [9]: 3190 nM

SMILES: CCC1(O)CCC(CN(C)C)(c2ccc(Cl)c(Cl)c2)CC1 (stereo not drawn) [Compound 280, 4-(3,4-dichlorophenyl)-4-((dimethylamino)methyl)-1-ethylcyclohexanol]
- IC50 [5, 10]: 7 nM
- IC50 [9]: 242 nM

SMILES: CCC1(O)CCC(CN)(c2ccc(Cl)c(Cl)c2)CC1 (stereo not drawn) [Compound 281, 4-(aminomethyl)-4-(3,4-dichlorophenyl)-1-ethylcyclohexanol]
- IC50 [5, 10]: 256 nM
- IC50 [9]: 384 nM

SMILES: CCC1(O)CCC(CN(C)C)(c2ccc(Cl)c(Cl)c2)CC1 (stereo not drawn) [Compound 283, 4-(3,4-dichlorophenyl)-4-((dimethylamino)methyl)-1-ethylcyclohexanol]
- IC50 [5, 10]: 20 nM
- IC50 [9]: 37 nM

SMILES: CCCC1(O)CCC(CN)(c2ccc(Cl)c(Cl)c2)CC1 (stereo not drawn) [Compound 284, 4-(aminomethyl)-4-(3,4-dichlorophenyl)-1-propylcyclohexanol]
- IC50 [5, 10]: 7900 nM
- IC50 [9]: 2460 nM

SMILES: CCCC1(O)CCC(CNC)(c2ccc(Cl)c(Cl)c2)CC1 (stereo not drawn) [Compound 285, 4-(3,4-dichlorophenyl)-4-((methylamino)methyl)-1-propylcyclohexanol]
- IC50 [5, 10]: 1140 nM
- IC50 [9]: 1900 nM

SMILES: CCCC1(O)CCC(CN(C)C)(c2ccc(Cl)c(Cl)c2)CC1 (stereo not drawn) [Compound 286, 4-(3,4-dichlorophenyl)-4-((dimethylamino)methyl)-1-propylcyclohexanol]
- IC50 ([5]; read-out: Human IC50 (nM) hSERT): 46 nM
- IC50 [9]: 198 nM

SMILES: CNCC1(c2ccc(Cl)c(Cl)c2)CCC(=O)CC1 [Compound 289, 4-(3,4-Dichloro-phenyl)-4-methylaminomethyl-cyclohexanone]
- IC50 [5, 10]: 469 nM
- IC50 [9]: 282 nM

SMILES: Clc1ccc(C2(C3CCCN3)CCCCC2)cc1Cl (stereo not drawn) [Compound 296, 2-(1-(3,4-dichlorophenyl)cyclohexyl)pyrrolidine]
- IC50 [5, 10]: 73 nM
- IC50 [9]: 27 nM

SMILES: c1ccc2cc(C3(C4CCCN4)CCCCC3)ccc2c1 (stereo not drawn) [Compound 297, 2-(1-(naphthalen-2-yl)cyclohexyl)pyrrolidine]
- IC50 [5, 10]: 40 nM
- IC50 [9]: 13 nM

SMILES: NCC1(c2ccc(Cl)c(Cl)c2)CCC(O)C1 (stereo not drawn) [cis 167, 3-(aminomethyl)-3-(3,4-dichlorophenyl)cyclopentanol]
- IC50 [5, 11]: > 10000 nM
- IC50 [9]: 2220 nM

SMILES: NCC1(c2ccc(Cl)c(Cl)c2)CCC(O)C1 (stereo not drawn) [trans 167, 3-(aminomethyl)-3-(3,4-dichlorophenyl)cyclopentanol]
- IC50 [5, 11]: 4910 nM
- IC50 [9]: 145 nM
